In the data set the test system is rat chronic carcinogenicity bioassay, TD50. The data set can be described thus: DSSTox (CPDBAS) Carcinogenic Potency Database Summary Rat Bioassay Results. The following applies: for Potency: stronger effect = lower value. Summed up: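 Chronic long-term rat cancer bioassays from literature and NCI/NTP, taking the most positive result per sex. TD50 in mmol converted to a 1–100 Activity Score from log10(1/TD50). Mixtures lacking TD50 scored 50.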

Where [1] appears, read: TD50_Rat_Note: no positive results, TargetSites_Rat_Female: no positive results.
[2] abbreviates: TD50_Rat_Note: TD50 is harmonic mean of more than one positive test, TargetSites_Rat_Female: nasal cavity.
Where [3] appears, read: TD50_Rat_Note: no positive results.
The mark [4] stands for this setting: TD50_Rat_Note: TD50 is harmonic mean of more than one positive test, TargetSites_Rat_Female: liver.
The mark [5] stands for this setting: TD50_Rat_Note: TD50 is harmonic mean of more than one positive test, TargetSites_Rat_Female: stomach.
[6] abbreviates: TargetSites_Rat_Female: no positive results.

The structures appear in SMILES notation. Activity calls are given as the source filed them.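 Rule for the calls: active = at least one rat sex group has a carcinogenic potency value and tumor site recorded; inconclusive = only rat studies were judged inadequate by the national testing program; inactive = no potency or tumor site, with negative rat experiments.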

For the molecule `ClC(Cl)C(Cl)(Cl)Cl`, the outcome under setting [1] was “inactive; no positive results”. Take `C1COCCO1`: where the note is “TD50_Rat_Note: TD50 is harmonic mean of more than one positive test, greater than ten-fold variation among TD50 values for positive res, TargetSites_Rat_Female: liver, mammary gland, nasal cavity”, the Potency is 267 mg/kg/day. For the molecule `Cc1nc(N)cc2[nH]c3ccccc3c12`, the Potency (TD50_Rat_Note: TD50 is harmonic mean of more than one positive test, TargetSites_Rat_Female: clitoral gland, hematopoietic system, liver, mammary gland, small intestine, vascular system) was 6.66 mg/kg/day. As for `C[C@]12CCC(=O)C=C1CC[C@@H]1[C@@H]2[C@@H](O)C[C@@]2(C)[C@H]1CC[C@]2(O)C(=O)CO`, the outcome under setting [1] is “inactive; no positive results”. Still for that read-out and setting: under `CN1CCC[C@H]1c1cccnc1` stands “inactive; no positive results”. Take `COc1ccc(C(=O)Nc2c(Cl)cncc2Cl)cc1OC1CCCC1`: the Potency under setting [2] is 1.54 mg/kg/day.

With `O=c1[nH]nc(-c2ccc([N+](=O)[O-])o2)o1`, the Potency (TargetSites_Rat_Female: all tumor bearing animals) is 8.61 mg/kg/day. For `CN(C)C=O`, the outcome under setting [1] was “inactive; no positive results”. Turning to `O=C(O)C(Cl)(Cl)Cl`, the outcome under setting [3] was “inactive; no positive results”. As to `O=[N+]([O-])OCC(CO[N+](=O)[O-])O[N+](=O)[O-]`, the Potency under setting [4] is 183 mg/kg/day. Consider `Oc1ccc2c(c1)OCO2`, for which, under setting [5], the Potency was 1350 mg/kg/day. For the molecule `CCO`, the Potency under setting [6] was 9110 mg/kg/day. With `NNc1nc(-c2ccc(N)cc2)cs1`, the Potency (TargetSites_Rat_Female: hematopoietic system, mammary gland) is 1.03 mg/kg/day. Turning to `Nc1cc(Cl)c(-c2cc(Cl)c(N)cc2Cl)cc1Cl`, the outcome under setting [1] was “inactive; no positive results”.

With `Cc1cccc(Nc2cc(Cl)nc(SCC(=O)O)n2)c1C`, the Potency (TD50_Rat_Note: TD50 is harmonic mean of more than one positive test, harmonic mean of TD50 includes a value for upper 99% confidence li) was 4.36 mg/kg/day. Regarding `CC1(C)C(=O)Nc2ccc(C3=NNC(=O)CC3)cc21`, the Potency (TD50_Rat_Note: TD50 is harmonic mean of more than one positive test, TargetSites_Rat_Female: adrenal gland) was 2.01 mg/kg/day. Regarding `Clc1ccc(Cl)cc1`, under setting [6], the Potency was 644 mg/kg/day. For the molecule `CCCCCCCCCCCCCCCC(=O)OC/C=C(C)/C=C/C=C(C)/C=C/C1=C(C)CCCC1(C)C`, the outcome under setting [3] was “inactive; no positive results”. Take `O=NN(CCCl)C(=O)N[C@@H]1[C@@H](O)[C@H](O)[C@@H](CO)O[C@@H]1O`: the Potency (TD50_Rat_Note: positive test results only by intraperitoneal or intravenous injection, TD50 is harmonic mean of more than one positive, TargetSites_Rat_Female: peritoneal cavity) was 0.0375 mg/kg/day. In the case of `CN1CCCC1=O`, the outcome under setting [1] was “inactive; no positive results”. With `CNC(=S)NC`, the outcome under setting [3] is “inactive; no positive results”. Still for that read-out and setting: under `O=[N+]([O-])c1ccc(Cl)cc1` stands “inactive; no positive results”. Take `O=C1CN=C(c2ccccc2)c2cc(Cl)ccc2N1CC1CC1`: under setting [1], the outcome is “inactive; no positive results”. Turning to `Nc1ccc(O)c([N+](=O)[O-])c1`, the Potency under setting [6] is 309 mg/kg/day. Consider `O=S(=O)(O)c1ccc2c(N=Nc3ccc(S(=O)(=O)O)c4ccccc34)c(O)c(S(=O)(=O)O)cc2c1`, for which the Potency (TD50_Rat_Note: TD50 is harmonic mean of more than one positive test, TargetSites_Rat_BothSexes: hematopoietic system) was 1470 mg/kg/day. For the molecule `S=C(SN1CCOCC1)N1CCOCC1`, the Potency (TD50_Rat_Note: TD50 is harmonic mean of more than one positive test, TargetSites_Rat_Female: kidney, urinary bladder) is 90.8 mg/kg/day. For the molecule `COC1[C@@H](O[C@@H]2O[C@H](C)[C@@H](O[C@H]3C[C@@](C)(O)[C@H](OC(=O)CC(C)C)[C@H](C)O3)[C@H](N(C)C)[C@H]2O)[C@@H](CC=O)C[C@@H](C)[C@@H](O)/C=C/C=C/C[C@@H](C)OC(=O)C[C@H]1OC(C)=O` (stereo partly specified), the outcome under setting [1] was “inactive; no positive results”.

For the molecule `Clc1cc(Cl)cc(-c2cc(Cl)cc(Cl)c2)c1`, under setting [1], the result was inactive. For the molecule `CC1(C)O[C@@H]2C[C@H]3[C@@H]4CCC5=CC(=O)C=C[C@]5(C)[C@@]4(F)[C@@H](O)C[C@]3(C)[C@]2(C(=O)CO)O1`, the Potency is 0.053 mg/kg/day.

On to `ClCc1cccnc1`, for which the Potency under setting [6] was 433 mg/kg/day. As to `C=CC(=O)c1ccc2c(c1)OCO2`, the outcome under setting [3] was “inactive; no positive results”. As for `CCc1cc(C(N)=S)ccn1`, the outcome under setting [1] was “inactive; no positive results”. Regarding `OCC1CO1` (stereo unspecified), where the note is “TD50_Rat_Note: TD50 is harmonic mean of more than one positive test, TargetSites_Rat_Female: clitoral gland, hematopoietic system, mammary gland, nervous system, oral cavity, stomach, thyroid gland”, the Potency is 4.28 mg/kg/day. As for `C1CCCNCCC1`, the outcome under setting [1] was “inactive; no positive results”. Regarding `c1ccc(C2CO2)cc1` (stereo unspecified), the Potency under setting [5] was 55.4 mg/kg/day.

In the case of `S=P(N1CC1)(N1CC1)N1CC1`, where the note is “TD50_Rat_Note: positive test results only by intraperitoneal or intravenous injection, TD50 is harmonic mean of more than one positive, TargetSites_Rat_Female: ear Zymbals gland”, the Potency is 0.164 mg/kg/day. Turning to `N#CSCc1ccccc1`, the outcome under setting [3] was “inactive; no positive results”. For `Cc1ccc(S(=O)(=O)Oc2ccc(N=Nc3ccc(-c4ccc(N=Nc5c(O)ccc6cc(S(=O)(=O)O)cc(S(=O)(=O)O)c56)c(C)c4)cc3C)cc2)cc1`, for the setting “TD50_Rat_Note: TD50 is harmonic mean of more than one positive test, TargetSites_Rat_Female: clitoral gland, ear Zymbals gland, large intestine, liver, lung, oral cavity, skin, small intestine”, the Potency was 3.89 mg/kg/day.

As to `c1ccc2c(c1)Oc1ccccc1O2`, under setting [1], the outcome was “inactive; no positive results”. Same read-out and setting: for `C=C/C=N/O` the value was “inactive; no positive results”. In the case of `CCN(CC)c1ccc(N=Nc2cc[n+]([O-])cc2)cc1`, the Potency (TD50_Rat_Note: TD50 value is overestimated as upper 99% confidence limit from study with 100% tumor incidence but no lifetable, harmoni) is 1.63 mg/kg/day. As to `C=C1C/C(=C/C)C(=O)O[C@@H]2CCN3CC=C(COC(=O)[C@@]1(O)CO)[C@H]23`, the Potency (TD50_Rat_Note: TD50 is harmonic mean of more than one positive test, TargetSites_Rat_Female: hematopoietic system, liver, vascular system) was 0.119 mg/kg/day. `CN=C(NC#N)NCCSCc1nc[nH]c1C`: the outcome under setting [1] is “inactive; no positive results”.

For `CCC1(c2ccccc2)C(=O)NC(=O)NC1=O`, under setting [1], the outcome was “inactive; no positive results”.

For the molecule `CCCN(CCC)N=O`, the Potency (TargetSites_Rat_Female: esophagus, liver, nasal cavity) is 0.186 mg/kg/day. Take `O=NN1CCCC1c1cccnc1` (stereo unspecified): the Potency was 0.0957 mg/kg/day. Consider `C/C=C1/C[C@@H](C)[C@](O)(CO)C(=O)OCC2=CC[N+]3([O-])CC[C@@H](OC1=O)[C@@H]23` (stereo partly specified), for which the Potency under setting [4] was 0.716 mg/kg/day.

Take `CN1C(C(=O)Nc2ccccn2)=C(O)c2sc(Cl)cc2S1(=O)=O`: the outcome under setting [1] was “inactive; no positive results”.

`CN(N=O)c1ccc(/C=C/c2ccnc3ccccc23)cc1`: the Potency under setting [4] is 0.699 mg/kg/day.

With `CC[C@H](C)C(=O)O[C@H]1C[C@@H](C)C=C2C=C[C@H](C)[C@H](CC[C@@H]3C[C@@H](O)CC(=O)O3)[C@H]21`, under setting [1], the outcome was “inactive; no positive results”.

Regarding `CCCCC(C)(O)C/C=C/[C@H]1[C@H](O)CC(=O)[C@@H]1CCCCCCC(=O)OC` (stereo partly specified), the outcome under setting [1] was “inactive; no positive results”. Still for that read-out and setting: for `CCC1(c2ccccc2)C(=O)NCNC1=O` the value was “inactive; no positive results”. Consider `C=CCN(CCO)N=O`, for which the Potency (TargetSites_Rat_Female: liver, nasal cavity) was 0.491 mg/kg/day. In the case of `COc1cc2c(cc1N)oc1ccccc12`, the Potency (TD50_Rat_Note: TD50 is harmonic mean of more than one positive test, harmonic mean of TD50 includes a value for upper 99% confidence li, TargetSites_Rat_Female: ear Zymbals gland, mammary gland, urinary bladder) is 29 mg/kg/day. Take `c1ccc2ccccc2c1`: the Potency under setting [2] was 22.1 mg/kg/day.

`CN(C)CCN(Cc1ccco1)c1ccccn1`: the outcome under setting [1] was “inactive; no positive results”. For `O=NN1CCCN(N=O)CC1`, under “TD50_Rat_Note: TD50 is harmonic mean of more than one positive test, TargetSites_Rat_Female: esophagus, liver, nasal cavity, oral cavity”, the Potency was 0.0615 mg/kg/day. `CNC[C@H](O)c1ccc(O)c(O)c1`: for the setting “TD50_Rat_Note: only experiment is NCI/NTP bioassay inadequate, TargetSites_Rat_Female: NTP bioassay inadequate”, the outcome was “ntp bioassay inadequate”. As to `NCCc1ccc(O)c(O)c1`, the outcome under setting [3] was “inactive; no positive results”. Consider `C=CC(=O)NCO`, for which the outcome under setting [1] was “inactive; no positive results”.

Consider `C=C(C)C#N`, for which, under setting [1], the outcome is “inactive; no positive results”.

As to `CC(C)CN(N=O)C(=N)N[N+](=O)[O-]`, the outcome under setting [3] was “inactive; no positive results”. As for `CC(C(O)c1ccccc1)N(C)N=O` (stereo unspecified), the Potency is 95.2 mg/kg/day. For `C=C1CC[C@H](O)C/C1=C/C=C1\CCC[C@]2(C)[C@@H]([C@H](C)CC[C@@H](O)C(C)(C)O)CC[C@@H]12`, the outcome under setting [3] is “inactive; no positive results”. Turning to `O=[N+]([O-])O`, under setting [1], the outcome is “inactive; no positive results”. In the case of `COCCl`, the Potency is 5.5 mg/kg/day.

For the molecule `CC(CCl)OC(C)CCl` (stereo unspecified), under setting [1], the outcome is “inactive; no positive results”. As for `CCOC1=C(O)C(=O)O[C@@H]1[C@@H](O)CO`, the result under setting [1] was inactive. Same read-out and setting: for `CCCNC(=O)NS(=O)(=O)c1ccc(Cl)cc1` the value was “inactive; no positive results”. For the molecule `C=CC(O)c1ccc2c(c1)OCO2` (stereo unspecified), under “TD50_Rat_Note: TD50 is harmonic mean of more than one positive test”, the Potency was 18.4 mg/kg/day. On to `NC(=S)Nc1ccccc1`, for which, under setting [1], the outcome was “inactive; no positive results”. Still for that read-out and setting: for `Oc1ccc(Cl)cc1Cc1ccccc1` the value was “inactive; no positive results”; for `CN(C)[C@@H]1C(=O)C(C(N)=O)=C(O)[C@@]2(O)C(=O)C3=C(O)c4c(O)cccc4[C@@](C)(O)[C@H]3C[C@@H]12`, “inactive; no positive results”. The same measure, in the same setting: under `OC(c1ccc(Cl)cc1)(c1ccc(Cl)cc1)C(Cl)(Cl)Cl` stands “inactive; no positive results”.

As to `O=NN1CCC(O)C1` (stereo unspecified), for the setting “TargetSites_Rat_BothSexes: all tumor bearing animals”, the Potency is 7.65 mg/kg/day. With `c1ccc2c(c1)cc1ccc3cccc4ccc2c1c34`, where the note is “TargetSites_Rat_BothSexes: stomach”, the Potency is 0.956 mg/kg/day.

The values are drawn from PubChem BioAssay AID1208 (EPA DSSTox, 2008).
